Patent publication US20110003689A1, “USE OF POLYMERIC GUANIDINE DERIVATIVES FOR THE CONTROL OF UNWANTED MICROORGANISMS IN CROP PROTECTION” (AKA TECHNOLOGY GMBH, priority 2007, published 2011)
Counter-ions that a name gives are not always drawn. Like-named read-outs stand apart in the source and are kept apart here.

Assays:
Botrytis cinerea = test: Botrytis test (bean)/protective (Example N)
Method: After the spray coating has dried on, 2 small pieces of agar colonized by Botrytis cinerea are placed onto each leaf. The inoculated plants are placed in a dark chamber at about 20° C. and 100% relative atmospheric humidity. 2 days after the inoculation, the size of the infected areas on the leaves is evaluated.

Pyrenophora teres = Pyrenophora teres test (barley)/curative (Example U); format: in vivo
Alternaria solani = test: Alternaria test (tomato)/protective, combinations (Example M); format: in vivo
Puccinia triticina = Puccinia triticina test (wheat)/curative (Example T); format: in vivo
Plasmopara viticola = test: Plasmopara test (grapevine)/protective, combinations (Example K); format: in vivo
[1] = test system: Blumeria graminis f. sp. hordei; test: Blumeria graminis test (barley)/curative (Example P); format: in vivo; settings: 168 h, read-out: Efficacy in % found
Phytophthora infestans = format: in vivo
[2] = test system: Blumeria graminis f. sp. hordei; test: Blumeria graminis test (barley)/protective (Example O); format: in vivo; settings: 125 ppm
Method: [table] […] Evaluation is carried out 7 days after inoculation.

Venturia inaequalis = test: Venturia test (apple)/protective, combinations (Example L)
Method: After the spray coating has dried on, the plants are inoculated with an aqueous conidia suspension of the apple scab pathogen Venturia inaequalis and then remain in an incubation cabin at about 20° C. and 100% relative atmospheric humidity for 1 day. The plants are then placed in a greenhouse at about 21° C. and a relative atmospheric humidity of about 90%. Evaluation is carried out 10 days after inoculation.

Leptosphaeria nodorum [3] = test: Leptosphaeria nodorum test (wheat)/curative (Example R); format: in vivo; settings: 62.5 ppm
Fusarium graminearum = format: in vivo; settings: 500 ppm
Leptosphaeria nodorum [4] = test: Leptosphaeria nodorum test (wheat)/protective (Example Q); format: in vivo; settings: 62.5 ppm
[5] = Alternaria solani, 72 h, read-out: Efficacy in % found

CC(C)NC(=O)N1CC(=O)N(c2cc(Cl)cc(Cl)c2)C1=O [(G-31) iprodione, iprodione]
Efficacy in % found (Botrytis cinerea; 12.5 ppm): 11%

OC(Cc1ccccc1Cl)(Cn1nc[nH]c1=S)C1(Cl)CC1 (centres unmarked) [(B-41) prothioconazole, prothioconazole]
Efficacy in % found (Pyrenophora teres; 125 ppm): 78% | pest or weed control at 5 ppm (Alternaria solani; [5]): 1%

CCCN(CC)CC1COC2(CCC(C(C)(C)C)CC2)O1 (centres unmarked) [(B-46) spiroxamine, spiroxamine]
Efficacy in % found (Puccinia triticina; 1000 ppm): 40%

C=CCOC(Cn1ccnc1)c1ccc(Cl)cc1Cl (centres unmarked) [(B-26) imazalil, imazalil]
Efficacy in % found (Puccinia triticina; 500 ppm): 83%

Cc1cc(C)nc(Nc2ccccc2)n1 [(G-10) pyrimethanil, pyrimethanil]
Efficacy in % found (Botrytis cinerea; 12.5 ppm): 13%

CSC1=N[C@@](C)(c2ccccc2)C(=O)N1Nc1ccccc1 [(D-2) fenamidone, fenamidone]
Efficacy in % found (Plasmopara viticola; 1 ppm): 19%

O=C(NCCc1ncc(C(F)(F)F)cc1Cl)c1ccccc1C(F)(F)F [(C-6) fluopyram, N-{2-[3-chloro-5-(trifluoromethyl)pyridin-2-yl]ethyl}-2-(trifluoromethyl)benzamide]
pest or weed control at 2.5 ppm (Alternaria solani; [5]): 23%

CC(C)C1C2CCC1c1c(NC(=O)c3cn(C)nc3C(F)F)cccc12 (centres unmarked) [(C-41) isopyrazam, 3-(difluoromethyl)-1-methyl-N-[1,2,3,4-tetrahydro-9-(1-methylethyl)-1,4-methanonaphthalen-5-yl]-1H-pyrazole-4-carboxamide]
pest or weed control at 500 ppm [1]: 78%

Cc1ccc(C(C)NC(=O)[C@@H](NC(=O)OC(C)C)C(C)C)cc1 (some centres unmarked) [(G-18) iprovalicarb, iprovalicarb]
Efficacy in % found (Plasmopara viticola; 0.5 ppm): 0% | Efficacy in % found (Phytophthora infestans; 2 ppm): 30%

mancozeb [(F-20) mancozeb]
Efficacy in % found (Plasmopara viticola; 100 ppm): 5% | Efficacy in % found (Phytophthora infestans; 25 ppm): 20% | Efficacy in % found (Alternaria solani; 50 ppm): 31%

Cn1cc(C(=O)Nc2ccccc2OC(F)(F)C(F)F)c(C(F)F)n1 [(C-19), 3-(difluoromethyl)-1-methyl-N-[2-(1,1,2,2-tetrafluoroethoxy)phenyl]-1H-pyrazole-4-carboxamide]
Efficacy in % found [2]: 78% | Efficacy in % found (Venturia inaequalis; 5 ppm): 35%

CO/N=C(/C1=NOCCO1)c1ccccc1Oc1ncnc(Oc2ccccc2Cl)c1F [(D-8) fluoxastrobin, fluoxastrobin]
pest or weed control at 500 ppm ([1]; 500 ppm): 78% | pest or weed control at 5 ppm (Alternaria solani; [5]): 35%

CCNC(=O)NC(=O)/C(C#N)=N/OC [(G-73) cymoxanil, cymoxanil]
Efficacy in % found (Plasmopara viticola; 50 ppm): 0%

CC1COC(Cn2cncn2)(c2ccc(Oc3ccc(Cl)cc3)cc2Cl)O1 (centres unmarked) [(B-7) difenoconazole, difenoconazole]
pest or weed control at 250 ppm [1]: 78%

CO/C=C(/C(=O)OC)c1ccccc1Oc1cc(Oc2ccccc2C#N)ncn1 [(D-4) azoxystrobin, azoxystrobin]
Efficacy in % found (Leptosphaeria nodorum [3]): 60%

N#Cc1c(Cl)c(Cl)c(Cl)c(C#N)c1Cl [(F-4) chlorothalonil, chlorothalonil]
Efficacy in % found (Pyrenophora teres; 1000 ppm): 30%

CC1(C(=O)Nc2ccc(O)c(Cl)c2Cl)CCCCC1 [(B-16) fenhexamid, fenhexamid]
Efficacy in % found (Botrytis cinerea; 2.5 ppm): 0%

N#Cc1c[nH]cc1-c1cccc2c1OC(F)(F)O2 [(G-60) fludioxonil, fludioxonil]
Efficacy in % found (Pyrenophora teres; 250 ppm): 78%

Cn1cc(C(=O)Nc2ccc(F)cc2-c2ccc(Cl)c(Cl)c2)c(C(F)F)n1 [(C-2) bixafen, N-(3′,4′-dichloro-5-fluoro-1,1′-biphenyl-2-yl)-3-(difluoromethyl)-1-methyl-1H-pyrazole-4-carboxamide]
pest or weed control at 500 ppm ([1]; 500 ppm): 63% | pest or weed control at 1.25 ppm (Alternaria solani; Alternaria solani, 72 h, 1.25 ppm, read-out: Efficacy in % found): 49%

CON=C(C(=O)OC)c1ccccc1CON=C(C)c1cccc(C(F)(F)F)c1 [(D-15) trifloxystrobin, trifloxystrobin]
Efficacy in % found (Puccinia triticina; 500 ppm): 83% | pest or weed control at 5 ppm (Alternaria solani; [5]): 40%

CCCN(CCOc1c(Cl)cc(Cl)cc1Cl)C(=O)n1ccnc1 [(B-39) prochloraz, prochloraz]
Efficacy in % found (Fusarium graminearum): 63%

CC(C)(C)C(O)C(Oc1ccc(-c2ccccc2)cc1)n1cncn1 (centres unmarked) [(B-3) bitertanol, bitertanol]
pest or weed control at 500 ppm ([1]; 500 ppm): 63% | Efficacy in % found (Venturia inaequalis; 2.5 ppm): 63%

O=[N+]([O-])c1cc(C(F)(F)F)c(Cl)c([N+](=O)[O-])c1Nc1ncc(C(F)(F)F)cc1Cl [(G-64) fluazinam, fluazinam]
Efficacy in % found (Plasmopara viticola; 5 ppm): 0%

OP(O)O [(G-101) phosphorous acid, phosphorous acid]
Efficacy in % found (Plasmopara viticola; 400 ppm): 30%

O=C(NCc1ncc(C(F)(F)F)cc1Cl)c1c(Cl)cccc1Cl [(E-6) fluopicolide, fluopicolide]
Efficacy in % found (Phytophthora infestans; 2 ppm): 9%

COC(=O)N(OC)c1ccccc1COc1ccn(-c2ccc(Cl)cc2)n1 [(D-13) pyraclostrobin, pyraclostrobin]
Efficacy in % found (Leptosphaeria nodorum [4]): 94% | pest or weed control at 5 ppm (Alternaria solani; [5]): 49%

CCO[PH](=O)O [(G-86) fosetyl-Al, fosetyl-Al]
Efficacy in % found (Plasmopara viticola; 200 ppm): 0%

CC(C)(C)C(O)(CCc1ccc(Cl)cc1)Cn1cncn1 (centres unmarked) [(B-47) tebuconazole, tebuconazole]
Efficacy in % found (Pyrenophora teres; 250 ppm): 60% | pest or weed control at 5 ppm (Alternaria solani; [5]): 29%

CCCCCCCCCCCCCN1CC(C)OC(C)C1 (centres unmarked) [(B-52) tridemorph, tridemorph]
pest or weed control at 250 ppm [1]: 75%

Cc1nn(C)c(F)c1C(=O)Nc1ccccc1C(C)CC(C)C (centres unmarked) [(C-14), N-[2-(1,3-dimethylbutyl)phenyl]-5-fluoro-1,3-dimethyl-1H-pyrazole-4-carboxamide]
pest or weed control at 250 ppm [1]: 67% | pest or weed control at 2.5 ppm (Alternaria solani; [5]): 0%

Fc1ccc([C@]2(Cn3cncn3)O[C@H]2c2ccccc2Cl)cc1 (racemic) [(B-12) epoxiconazole, epoxiconazole]
Efficacy in % found (Pyrenophora teres; 500 ppm): 78%

CC(C)CC(C)c1sccc1NC(=O)c1cn(C)nc1C(F)(F)F (centres unmarked) [(C-12) penthiopyrad, penthiopyrad]
pest or weed control at 250 ppm [1]: 88% | Efficacy in % found (Venturia inaequalis; 5 ppm): 60%

COCC(=O)N(c1c(C)cccc1C)[C@H](C)C(=O)OC [(G-55) metalaxyl-M, metalaxyl-M]
Efficacy in % found (Phytophthora infestans; 2.5 ppm): 10%

CC(C)[C@H](NC(=O)O)C(=O)N[C@H](C)c1nc2ccc(F)cc2s1 [(G-15) benthiavalicarb, benthiavalicarb]
Efficacy in % found (Phytophthora infestans; 0.5 ppm): 23%

O=C(Nc1ccccc1-c1ccc(Cl)cc1)c1cccnc1Cl [(C-3) boscalid, boscalid]
Efficacy in % found (Venturia inaequalis; 5 ppm): 36%

COc1ccc(C(=CC(=O)N2CCOCC2)c2ccc(Cl)cc2)cc1OC [(G-16) dimethomorph, dimethomorph]
Efficacy in % found (Plasmopara viticola; 1 ppm): 0%

CCCOC(=O)NCCCN(C)C [(G-35) propamocarb hydrochloride, propamocarb hydrochloride]
Efficacy in % found (Plasmopara viticola; 400 ppm): 0% | Efficacy in % found (Phytophthora infestans; 100 ppm): 0%

propineb [(F-24) propineb]
Efficacy in % found (Plasmopara viticola; 100 ppm): 51% | Efficacy in % found (Phytophthora infestans; 100 ppm): 15%
